# Assay results published in patent US7078065B2, “Composition containing asiasari radix extracts for protecting brain cells and improving memory” (priority 2001, dated 2006).
# Tests used:
# [1] = tested on: AMPA-induced depolarization in rat cortical slices; assay: Grease-gap recording assay: AMPA-induced depolarization in rat cortical wedges; conditions: AMPA 40 uM for 2 min
# Procedure: Cortical wedges from rats were prepared, placed in two-compartment brain bath and experiments were performed as described by Harrison and Simmonds (British J. Pharmacol. 84, 381–391, 1985). ‘Wedges’ of rat cerebral cortex were prepared from the brains of male Wistar rats (200 g). The animal is decapitated and the brain rapidly removed into chilled oxygenated (95% O2/5% CO2) artificial cerebrospinal fluid (ACSF) containing (mM): NaCl 122, NaHCO3 25, KCl 3.1, KH2PO4 0.4, CaCl2 1.3, MgSO4 1.4, D-glucose 10, (pH 7.4). […] coronal slices were taken and they were then placed in room temperature oxygenated ACSF and hemisected with a razor blade. A wedge of tissue was formed such that the dorsal cortical surface containing cerebral cortex and corpus callosum was approximately 1.5 mm wide and ventral surface was approximately 1 mm wide. The wedges were further incubated in ACSF for 2 hrs at room temperature.
# Cortical wedges were placed in a two-compartment bath and a greased (high vacuum silicon grease) barrier placed such that a high-resistance seal was formed between the two compartments. Oxygenated ACSF was perfused through the two compartments separately at 2 ml/min for at least 1 hr. […] The DC potential between the two compartments was monitored via Ag/AgCl electrodes. The signal was amplified and analyzed with the aid of McLab software.
# [2] = tested on: differentiated PC12 cells; assay: Cell viability (MTT) assay, AMPA-induced damage in differentiated PC12 cells; type: cell-based; conditions: AMPA 40 uM
# Procedure: (§1) MTT assay is a method to measure mitochondrial redox with calorimeter and it is primarily used to know mitochondrial redox potential or cell viability (Mosmann T., J Immunol. Methods, 1983). PC 12 cells and C6 glial cells were grown in DMEM media with 10% fetal calf serum in 5% humidified CO2 atmosphere at 37° C. PC12 cells were induced to differentiation into neuronal cells by the addition of nerve growth factor (100 ng/ml). Fresh NGF was added every 48 h and experiments were conducted after NGF treatment for 7 days.
# (§2) The cells were plated in 96 well plates at a density of 1×10^5 cells/well. Cells were preincubated with AMPA (40 μM) and followed by the addition of AR fractions (10 μg/ml) for 24 hrs. MTT reagent (Sigma, USA) (5 mg/ml) was made in PBS (phosphate buffered saline) and filtered. The cells were then treated with MTT (final concentration, 0.5 mg/ml) and allowed to incubate for 3 hrs at 37° C. Cells containing active mitochondria form dark blue formazan by disintegrating tetrazolium ring. The culture media were removed and the cells were subjected to lysis in the presence of […] of DMSO and […] of Sorensen glycine buffer (0.1M glycine, 0.1M NaCl, pH 10.5). The absorbance was measured with spectrophotometer at 570 nm. The ratio of absorbance of experimental groups to control groups is expressed as % cell viability.
# C6 glial cells = assay: Cell viability (MTT) assay, AMPA-induced damage in C6 glial cells; type: cell-based
# Procedure: as §1, §2
smiles,measurement,setting,value
Cc1o[nH]c(=O)c1CC(N)C(=O)O (stereo not drawn) [AMPA],increase in depolarization,[1],up to 0.79 mV
same,reduction in cell viability as compared to control,[2],approximately 50%
same,reduction in cell viability as compared to control,C6 glial cells,approximately 35%
